Here are results for 2 compounds from patent US8293979B2, “Weed controller metabolism proteins, genes, thereof and use of the same” (Sumitomo Chemical Company, Limited, priority 2001, dated 2012).

The test system of series [1] is present invention protein (A16). The series is described as follows: Metabolism of compounds by the present invention protein (A16), reaction solution, HPLC. It counts as in vitro ADME, Streptomyces ornatus IFO 13069t. The settings on record: 12.5 ppm of compound, components A, B, C, 20 μl supernatant fraction of Example 49(2), 30° C. for 10 minutes. As to the method: There was prepared 100 μl of a reaction solution of 50 mM potassium phosphate buffer (pH7.0) containing 12.5 ppm of compound (XII), 3 mM of β-NADPH (hereinafter, referred to as “component A”) (Oriental Yeast Company), 1 mg/ml of a ferredoxin derived from spinach (hereinafter referred to as “component B”) (Sigma Company), 0.15 U/ml of ferredoxin reductase (hereinafter, referred to as “component C”) (Sigma Company) and 20 μl of the supernatant fraction recovered in Example 49(2). The reaction solution was maintained at 30° C. for 10 minutes. […] Forty microliters (40 μl) of the liquid filtrate (hereinafter, the liquid filtrate derived from the reaction solution containing component A, component B, component C and 20 μl of supernatant fraction recovered in Example 49(2) is referred to as “(XII) metabolism solution (A16);” further, the liquid filtrate derived from the reaction solution containing no component A, no component B, no component C and no supernatant fraction recovered in Example 49(2) is referred to as “(XII) control solution (A16)”) were analyzed on a HPLC under the above analysis condition 1. Compared to the concentration of compound (XII) detected from (XII) control solution (A16), the concentration of compound (XII) detected from (XII) metabolism solution (A16) was lower. […]

In series [2] the test system is present invention protein (A19). The series is described as follows: Detection of the ability to convert compound (II) to compound (III), E. coli pKSN1502F extract. It is filed as in vitro ADME, Streptomyces griseus IFO 13849T. The settings on record: 3 ppm of compound (II) labeled with 14C, components A, B, 10 minutes at 30° C. As to the method: (§1) Reaction solutions of 30 μl were prepared and maintained for 10 minutes at 30° C. The reaction solutions consisted of a 0.1M potassium phosphate buffer (pH7.0) containing 3 ppm of compound (II) labeled with ^14C, 2 mM of β-NADPH (hereinafter, referred to as “component A”) (Oriental Yeast Company), 2 mg/ml of a ferredoxin derived from spinach (hereinafter referred to as “component B”) (Sigma Company), 0.1 U/ml of ferredoxin reductase (hereinafter, referred to as “component C”) (Sigma Company) and 23 μl of the supernatant fraction recovered in Example 32(2). Similarly to Example 4(3), the reaction solutions after the maintenance were extracted with ethyl acetate and the extracted layers were TLC analyzed. […] A spot corresponding to compound (III) was detected from the reaction solution containing E. coli pKSN849AF extract. In contrast, such a spot was not detected from the reaction solution containing E. coli pKSN2 extract.
Similarly to Example 32(3), reaction solutions of 30 μl were prepared and maintained for 10 minutes at 30° C. […] The reaction solutions after the maintenance were extracted with ethyl acetate and the extracted layers were TLC analyzed. […] A spot corresponding to compound (III) was detected from the reaction solution containing E. coli pKSN1502F extract. In contrast, such a spot was not detected from the reaction solution containing E. coli pKSN2 extract.

The subject of series [3] is present invention protein (A25). The experiment in a line: Detection of the ability to convert compound (II) to compound (III), E. coli pKSN1609F extract. It is filed as in vitro ADME, Streptomyces steffisburgensis IFO 13446T. The settings on record: 3 ppm of compound (II) labeled with 14C, components A, B, 10 minutes at 30° C. As to the method:
as §1
Similarly to Example 32(3), reaction solutions of 30 μl were prepared and maintained for 10 minutes at 30° C. […] The reaction solutions after the maintenance were extracted with ethyl acetate and the extracted layers were TLC analyzed. […] A spot corresponding to compound (III) was detected from the reaction solution containing E. coli pKSN1609F extract. In contrast, such a spot was not detected from the reaction solution containing E. coli pKSN2 extract.

For series [4], the system named is present invention protein (A16). The experiment in a line: Detection of the ability to convert compound (II) to compound (III), E. coli pKSN452F extract. It is filed as in vitro ADME, Streptomyces ornatus IFO 13069t. The settings on record: 3 ppm of compound (II) labeled with 14C, components A, B, 10 minutes at 30° C. As to the method: as §1
Similarly to Example 32(3), reaction solutions of 30 μl were prepared and maintained for 10 minutes at 30° C. […] The reaction solutions after the maintenance were extracted with ethyl acetate and the extracted layers were TLC analyzed. […] A spot corresponding to compound (III) was detected from the reaction solution containing E. coli pKSN452F extract. In contrast, such a spot was not detected from the reaction solution containing E. coli pKSN2 extract.

For series [5], the system named is present invention protein (A21). The series is described as follows: Detection of the ability to convert compound (II) to compound (III), E. coli pKSN1543BF extract. It is filed as in vitro ADME, Streptomyces misawanensis IFO 13855T. The settings on record: 3 ppm of compound (II) labeled with 14C, components A, B, 10 minutes at 30° C. As to the method: as §1
Similarly to Example 32(3), reaction solutions of 30 μl were prepared and maintained for 10 minutes at 30° C. […] The reaction solutions after the maintenance were extracted with ethyl acetate and the extracted layers were TLC analyzed. […] A spot corresponding to compound (III) was detected from the reaction solution containing E. coli pKSN1543BF extract. In contrast, such a spot was not detected from the reaction solution containing E. coli pKSN2 extract.

With `Cn1c(C(F)(F)F)cc(=O)n(-c2cc(Oc3cccnc3OCC(=O)O)c(Cl)cc2F)c1=O` [compound (XII)], in series [1], the “concentration of the compound detected from metabolism solution (A16) compared to control solution (A16)” value is “lower”.

In the case of `C[C@@H](Oc1cc(-n2c(=O)cc(C(F)(F)F)n(C)c2=O)c(F)cc1Cl)C(=O)O` [compound (II)], the “spot corresponding to compound (III) labeled with 14C (TLC)” value in series [2], in series [3], in series [4] and in series [5] was “detected” each time.
